Patent US20260193647A1, “MIRNA-BASED CANCER THERAPY WITH A TUMOR-NAVIGATING PEPTIDE” (The Board of Trustees of the Universities of Illinois, priority 2022, published 2026)

What was measured:
[1] = tested on: 3D Human Blood Brain Barrier Model
Experimental: Permeability experiments were carried out in a 3D Human Blood Brain Barrier Model kit (Alphabioregen, Catalog #EP010). The BBB kits were activated following the manufacturer's instructions. Briefly, the BBB model was thawed using BBB growth medium (#BBB-GM001) and incubated overnight with fresh BBB growth medium. The model was incubated with Endo-Neuro-Pharmaceuticals medium (#NMBBB001) for 3 days. AmiR20-p28 was prepared in assay buffer (Dulbecco's PBS containing CaCl2 and MgCl4, 100 mM HEPES, pH 7.0, 25 mM D-glucose). The permeability of AmiR20-p28 was measured in two directions: apical to basolateral (A-B) and basolateral to apical (B-A). The apical side represented the blood, and the basolateral side represented the brain tissue. For transport, the inserts from the BBB wells were transferred to another well containing prewarmed assay buffer. Depending on the direction, the medium in the donor compartment of the BBB model was replaced with AmiR20-p28. The plate was incubated for 30 min at 37° C. Samples were then collected from the donor and acceptor compartments and analyzed by real-time PCR. The concentrations of AmiR20-p28 in the compartments were calculated based on a standard curve developed with AmiR20-p28 at 1, 10, 100 and 1,000 nM and its relative Ct value obtained from real-time PCR. […]

miR-20a = miR-20a expression levels by stem loop qPCR in treated cells; type: cell-based, human; conditions: 10 nM, 24 hr
Source text: Micro RNA enriched fraction was extracted using the miRNeasy Mini Kit (Qiagen, Catalog #217004) following the manufacturer's instructions. Stem loop real-time qPCR was used to analyze miRNA expression. We designed miR-20a stem loop RT primers and amplification primers according to a previously described method 79. cDNA was synthesized from extracted RNA using unique stem loop RT primers. The sequence of the stem loop primer for miR-20a was 5′-[…]-3′ (SEQ ID NO:7). Reverse transcriptase reactions contained the following reagents: 10 ng of RNA sample, 60 nM stem-loop RT primer, 1×RT buffer, 0.25 mM dNTP, and 4 U/μl reverse transcriptase. Reactions were performed by incubation at 16° C. for 30 min, 42° C. for 30 min and 85° C. for 5 min. Real-time PCR (7300 Real time PCR Systems, Applied Biosystems, CA) was performed using the specific forward primer for miR-20a (5′-[…]-3′ (SEQ ID NO:8)) and a universal reverse primer (5′-GTGCA GGGTC CGAGGT-3′ (SEQ ID NO:9)). The 20-μl PCR mixture included 1×SYBR Premix (Invitrogen), 2 μl of RT products and each forward and reverse primer at 10 nM. Reactions were performed by incubation in a 96-well plate at 95° C. for 30 sec, followed by 35 cycles of 95° C. for 30 sec and 60° C. for 30 sec. U6 was used as an internal control to normalize the level of target miRNAs. The results were verified by performing PCR using M13 modified forward and reverse primers specific to stem loop sequence. The PCR products were visualized in 2% agarose gels and DNA-sequence was confirmed. Human tumor and serum samples were obtained from patients who had signed informed consent and the institutional review board approval was obtained in Pediatric Brain Tumor Consortium (PBTC-041) participating sites.

SJ-GBM2 spheroids = test: SJ-GBM2 tumor spheroids: uptake and structure; type: cell-based, human
Experimental: (§1) SJ-GBM2 cells, CHLA-200 cells and astrocytes (2×10^4 cells/well) were cultured on glass slides placed in 24-well plates. After overnight culture, the cells were washed with PBS and incubated with 20 μM Alexa Fluor 568-labeled p28 peptide in medium (5% FBS and without phenol red) for 2 hr at 37° C. Cells were fixed with 2% formalin for 10 min. After washing, slides were prepared and mounted with Vectashield with DAPI (Vector Laboratories, Catalog #94010). Slides were examined by an LSM 710 confocal laser scanning microscope (Zeiss). Images were processed using ZEN software (ZEISS ZEN Lite). As for a GSC marker, the slides were first incubated with Alexa Fluor 568-labeled AmiR20-p28 for 2 hr at 37° C. Cells were fixed with 2% formalin for 10 min. After washing, slides were incubated with blocking buffer for 1 hr at room temperature, followed by consecutive staining with anti-CD133 antibody (1:500, R&D Systems FAB11331G). Slides were washed and mounted with Vectashield containing DAPI. Slides were examined by the LSM 710 confocal laser scanning microscope.
SJ-GBM2 spheroids were formed by self-aggregation of cells in the bottoms of non-adherent round bottom 96-well plates (Thermo Scientific, #174925 96U). Suspensions of 10,000 cells in 100 μl volumes of media were pipetted into individual wells and allowed to form cell-cell connections over the course of 3 days.

[2] = tested on: SJ-GBM2 cells, CHLA-200 cells and astrocytes; test: Cellular entry by confocal microscopy; type: cell-based, human; conditions: 20 μM Alexa Fluor labeled, 2 hr, 37° C.; pGBM cells vs normal astrocytes
Experimental: p28 or AmiR20-p28 were dissolved in PBS mixed with Alexa Fluor 568 dye (Invitrogen) at a 1:2 peptide/dye ratio 37. Sodium bicarbonate (pH 8.5) was added and incubated at 4° C. with continuous stirring. Alexa Fluor 568 labeled p28 and AmiR20-p28 were dialyzed against cold-PBS using Slide-A-Lyzer Dialysis Cassettes (Pierce Biotechnology). Similarly, p28 was labeled with ICG as described previously.
as §1, with “Slides were examined by the LSM 710 confocal laser scanning microscope.” left out

## AmiR20-p28: BBB-permeable tumor-navigating CPP p28 (Cys-p28) covalently linked to 2′ O-methyl antisense miR-20a (5′-maleimide)
[1]
  efflux Papp (B-A): 0.95 ×10⁻⁶ cm/s
  influx Papp (A-B): 4.39 ×10⁻⁶ cm/s
miR-20a; CHLA-200 cells
  miR-20a expression levels reduced by: 96%
miR-20a; LN-229 cells
  miR-20a expression levels reduced by: 84%
miR-20a; SJ-GBM2 cells
  miR-20a expression levels reduced by: 94%
miR-20a; normal human astrocytes
  miR-20a levels: not significantly altered
SJ-GBM2 spheroids; 10 nM, 24 and 48 h
  structure of the SJ-GBM2 spheroids: started to disintegrate at 24 h
SJ-GBM2 spheroids; 20 μM Alexa Fluor-labeled, 2 hr, 37° C.
  uptake in tumor spheroids: penetrated the tumor spheroids
[2]
  cellular entry (confocal images): preferential entry
